Laboratory results: patent publication US10071097B2, “Molecular targets for the treatment of wounds, in particular chronic wounds” (URGO RECHERCHE INNOVATION ET DEVELOPPEMENT, priority 2013, dated 2018)

Experiments:
Assay type in all cases: cell-based
[1] = system: Normal Human Dermal Fibroblast (NHDF); test: fibroblast to myofibroblast differentiation of NHDF (markers αSMA, PI16, ACTC1 by RT-qPCR, αSMA positive cells)
Protocol: (§1) NHDF, isolated from human explants, were purchased from Promocell. NHDF were cultivated in DMEM-F12 (Invitrogen), supplemented with 10% FCS (Invitrogen, 5 μg/mL of insulin and 1 ng/mL of b-FGF (PromoKine)).
(§2) For experiments, cells were deprived of insulin and b-FGF during 48 hours. Then, the cells were cultivated on collagen coated culture plates in DMEM-F12, supplemented with 10% FCS, 10 ng/mL of TGF-β1 (Promocell) for 4 days. Four points were tested in order to appreciate the effect of exudate on fibroblast differentiation: untreated cells (T−E−), fibroblasts treated with TGF-β1 (T+E−), cells treated with exudate (T−E+) and finally fibroblasts treated with TGF-β1 and exudate at the same time (T+E+).
The efficiency of fibroblast differentiation was estimated by analyzing the expression of the myofibroblast marker alpha smooth muscle actin (αSMA).
(§3) After four days of experiment, treated fibroblasts were lysed with TRIzol Reagent (Invitrogen) and stored at −80° C. Then RNA was purified using chloroform and precipitated by isopropanol. Total RNA was quantified on the NanoDrop 2000c Spectrophotometer (Thermo Scientific). Reverse transcription of 500 ng total RNA to cDNA was done with oligot dT (Invitrogen) using SuperScript III RT (Invitrogen) and RNAse OUT (Invitrogen). The cDNA was store at −20° C.
(§4) Quantitative real-time PCR (RT-qPCR) was done using 5 μL of 1:20 diluted cDNA on the LightCycler480 system (Roche) using Maxima SYBR Green qPCR Master Mix (Fermentas). Forward and reverse primers for αSMA were designed by Eurofins (MWG, αSMA forward: […] (SEQ ID NO:9), αSMA reverse: […] (SEQ ID NO:10)) and a 100 μM stock was stored at −20° C. Forward and reverse primer pairs were used for each RT-qPCR reaction. The cycling conditions were as follows: an initial 95° C. for 10 minutes, followed by 45 cycles of 95° C. for 15 sec, 58° C. for 30 sec, 72° C. for 20 sec. LightCycler 480 SW 1.5 was used to evaluate the TM curves, to determine the Cp and to approximate the relative concentration for each amplification reaction.
Cells grown in collagen coated culture dishes, and treated as previously described, were fixed with 4% paraformaldehyde (PFA) in PBS for 15 minutes and permeabilized with 2.5% Triton X-100 (Euromedex, 2000-B) in PBS for 3 minutes. After saturation with 5% BSA in PBS, cells were stained for α-SMA (Abcam, ab5694) and for DNA (DAPI). As secondary antibody, CyTM3 conjugated anti rabbit (GE Healthcare, PA43004) was used. […] To estimate the percentage of fibroblast differentiation due to the different treatments, the total number of cells per field was determined by the DAPI, and myofibroblasts, differentiated fibroblasts, were counted using the α-SMA staining. […]

[2] = system: Normal Human Dermal Fibroblast (NHDF); test: ex vivo model of chronic wounds: NHDF differentiation in presence of chronic wound exudate; settings: TGFβ, exudate and Am580 versus same condition without Am580
Protocol: as §1
To collect exudates, two patients with mixed ulcers were recruited. For patient selection, it was decided to exclude any other comorbidity factor potentially involved in wound etiology: diabetes, peripheral arterial diseases, malnutrition. Exudates were collected from negative pressure therapy. All the exudates were centrifuged at 1,500×g for 3 minutes to remove cell debris. The supernatant was filtered and stored at −80° C. until use. Aliquots were used to determine protein concentration according to BCA method (Sigma).
as §2
For the chronic or non-healing wound model, chronic wound exudates were added to cell cultures (500 μg/mL of total proteins of exudate). […]

[3] = system: Normal Human Dermal Fibroblast (NHDF); test: transcription factor mRNA levels in treated NHDF by RT-qPCR; settings: Gant 61
Protocol: FIG. 6: Graphic representation of the TCF4 (a), EGR2 (b), SOX9 (c), STAT4 (d), FOXS1 (e), PPARG (f), MAF (g), MEOX2 (h), and SIX2 (i) mRNA levels after NHDF (donor A) treatment for 48 h (light grey) or 72 h (dark grey) either with mock siRNA or siRNA directed against different TF mRNA (SOX9, EGR2, TCF4, or FOXS1) and concomitantly treated with TGF-β. For all graphs, the mock siRNA treated with TGF-β (T+E) condition was set to 100% for each time of treatment (48 h and 72 h).
FIG. 10: Graphic representation of the αSMA, GLI1, SOX9 and MAF mRNA levels assessed by RT-qPCR of NHDFs treated by Gant 61.
as §3, §4

CC1(C)CCC(C)(C)c2cc(C(=O)Nc3ccc(C(=O)O)cc3)ccc21 [Am580, 4-[(5,6,7,8-Tetrahydro-5,5,8,8-tetramethyl-2-naphthalenyl)carboxamido]benzoic acid]
differentiation followed with αSMA mRNA ([1]; Am580 5 nM in presence of TGFβ): increase differentiation
differentiation followed with ACTC1 mRNA ([1]; Am580 in presence of TGFβ): increase differentiation
differentiation followed with PI16 mRNA ([1]; Am580 in presence of TGFβ): increase differentiation
PI16 mRNA [2]: increase
αSMA mRNA [2]: increase

CN(C)c1ccccc1CN1CCCN(Cc2ccccc2N(C)C)C1c1ccncc1 [Gant 61]
differentiation shown by α-SMA mRNA ([1]; Gant 61 4 μM): upregulation
MAF mRNA [3]: decrease
SOX9 mRNA [3]: increase
expression of GLI1 (mRNA) [3]: upregulate
